{"source": "the supplement of paper PMC9663587", "key": {"senexin b": {"compound": "CN1CCN(C(=O)c2ccc3cc(CCNc4ncnc5ccc(C#N)cc45)ccc3c2)CC1 [senexin b]"}, "BSJ-01-175": {"compound": "CN(C)C/C=C/C(=O)Nc1ccc(O[C@@H]2CCC[C@@H](Nc3ncc(Cl)c(-c4c[nH]c5ccccc45)n3)C2)cc1 [BSJ-01-175]"}, "Ceritinib/LDK378": {"compound": "Cc1cc(Nc2ncc(Cl)c(Nc3ccccc3S(=O)(=O)C(C)C)n2)c(OC(C)C)cc1C1CCNCC1 [Ceritinib/LDK378]"}, "Rucaparib": {"compound": "CNCc1ccc(-c2[nH]c3cc(F)cc4c3c2CCNC4=O)cc1 [Rucaparib]"}, "Tivantinib/ARQ197": {"compound": "O=C1NC(=O)[C@@H](c2cn3c4c(cccc24)CCC3)[C@@H]1c1c[nH]c2ccccc12 [Tivantinib/ARQ197]"}, "Paclitaxel": {"compound": "CC(=O)O[C@H]1C(=O)[C@@]2(C)[C@H]([C@H](OC(=O)c3ccccc3)[C@]3(O)C[C@H](OC(=O)[C@H](O)[C@@H](NC(=O)c4ccccc4)c4ccccc4)C(C)=C1C3(C)C)[C@]1(OC(C)=O)CO[C@@H]1C[C@@H]2O [Paclitaxel]"}, "AZD6738": {"compound": "C[C@@H]1COCCN1c1cc(C2([S@](C)(=N)=O)CC2)nc(-c2cc[nH]c3nccc2-3)n1 [AZD6738]"}, "THZ531 [1]": {"compound": "T1, CN(C)C/C=C/C(=O)Nc1ccc(C(=O)N2CCC[C@@H](Nc3ncc(Cl)c(-c4c[nH]c5ccccc45)n3)C2)cc1 [THZ531]"}, "Cediranib/AZD2171": {"compound": "COc1cc2c(Oc3ccc4[nH]c(C)cc4c3F)ncnc2cc1OCCCN1CCCC1 [Cediranib/AZD2171]"}, "Pictilisib/GDC0941": {"compound": "CS(=O)(=O)N1CCN(Cc2cc3nc(-c4cccc5[nH]ncc45)nc(N4CCOCC4)c3s2)CC1 [Pictilisib/GDC0941]"}, "BSJ-03-123": {"compound": "CC(=O)c1c(C)c2cnc(Nc3ccc(N4CCN(CCOCCOCCOCCNC(=O)COc5cccc6c5C(=O)N(C5CCC(=O)NC5=O)C6=O)CC4)cn3)nc2n(C2CCCC2)c1=O [BSJ-03-123]", "assay": "GR value, 72 h; higher = faster growth (1 = untreated, <0 = killing);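 also: breast cancer and non-malignant breast epithelial lines, nine half-log doses, viable cells counted by Hoechst and LIVE/DEAD dye imaging versus time-zero plates and DMSO controls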"}, "[2]": {"compound": "CCc1cnn2c(NCc3ccc[n+]([O-])c3)cc(N3CCCC[C@H]3CCO)nc12", "assay": "GR value, 72 h; higher = faster growth (1 = untreated, <0 = killing)"}, "[3]": {"compound": "CCN1CCN(Cc2ccc(Nc3ncc(F)c(-c4cc(F)c5nc(C)n(C(C)C)c5c4)n3)nc2)CC1", "assay": "GR value, 72 h; higher = faster growth (1 = untreated, <0 = killing)"}, "YKL-5-124": {"compound": "C=CC(=O)Nc1ccc(C(=O)Nc2[nH]nc3c2CN(C(=O)N[C@H](CN(C)C)c2ccccc2)C3(C)C)cc1 [YKL-5-124]", "assay": "GR value, 72 h; higher = faster growth (1 = untreated, <0 = killing)"}, "LEE011/Ribociclib": {"compound": "CN(C)C(=O)c1cc2cnc(Nc3ccc(N4CCNCC4)cn3)nc2n1C1CCCC1 [LEE011/Ribociclib]", "assay": "GR value, 72 h; higher = faster growth (1 = untreated, <0 = killing)"}, "[4]": {"compound": "CC(=O)c1c(C)c2cnc(Nc3ccc(N4CCNCC4)cn3)nc2n(C2CCCC2)c1=O", "assay": "GR value, 72 h; higher = faster growth (1 = untreated, <0 = killing)"}, "THZ1": {"compound": "CN(C)C/C=C/C(=O)Nc1ccc(C(=O)Nc2cccc(Nc3ncc(Cl)c(-c4c[nH]c5ccccc45)n3)c2)cc1 [THZ1]", "assay": "GR value, 72 h; higher = faster growth (1 = untreated, <0 = killing)"}, "THZ531 [5]": {"compound": "T1, THZ531", "assay": "GR value, 72 h; higher = faster growth (1 = untreated, <0 = killing)"}}}
{"cell line": "UACC893", "values": [{"measurement": "GR50, 72 h", "setting": "senexin b", "result": "> 10", "unit": "µM"}, {"measurement": "GR50, 72 h", "setting": "BSJ-01-175", "result": 0.0165, "unit": "µM"}, {"measurement": "GR50, 72 h", "setting": "Ceritinib/LDK378", "result": "> 10", "unit": "µM"}, {"measurement": "GR50, 72 h", "setting": "Rucaparib", "result": "> 10", "unit": "µM"}, {"measurement": "GR50, 72 h", "setting": "Tivantinib/ARQ197", "result": 0.297, "unit": "µM"}, {"measurement": "GR50, 72 h", "setting": "Paclitaxel", "result": 0.00216, "unit": "µM"}, {"measurement": "GR50, 72 h", "setting": "AZD6738", "result": 9.33, "unit": "µM"}, {"measurement": "GR50, 72 h", "setting": "THZ531 [1]", "result": 0.0414, "unit": "µM"}, {"measurement": "GR50, 72 h", "setting": "Cediranib/AZD2171", "result": 6.59, "unit": "µM"}, {"measurement": "GR50, 72 h", "setting": "Pictilisib/GDC0941", "result": 0.682, "unit": "µM"}, {"measurement": "GR value", "setting": "BSJ-03-123; 0.001 µM", "result": 0.933, "unit": "GR"}, {"measurement": "GR value", "setting": "BSJ-03-123; 0.003162 µM", "result": 0.792, "unit": "GR"}, {"measurement": "GR value", "setting": "BSJ-03-123; 0.01 µM", "result": 0.726, "unit": "GR"}, {"measurement": "GR value", "setting": "BSJ-03-123; 0.03162 µM", "result": 0.878, "unit": "GR"}, {"measurement": "GR value", "setting": "BSJ-03-123; 0.1 µM", "result": 0.644, "unit": "GR"}, {"measurement": "GR value", "setting": "BSJ-03-123; 0.3162 µM", "result": 0.502, "unit": "GR"}, {"measurement": "GR value", "setting": "BSJ-03-123; 1 µM", "result": 0.538, "unit": "GR"}, {"measurement": "GR value", "setting": "BSJ-03-123; 3.162 µM", "result": 0.498, "unit": "GR"}, {"measurement": "GR value", "setting": "BSJ-03-123; 10 µM", "result": 0.283, "unit": "GR"}, {"measurement": "GR value", "setting": "[2]; 0.0001 µM", "result": 0.963, "unit": "GR"}, {"measurement": "GR value", "setting": "[2]; 0.0003162 µM", "result": 0.894, "unit": "GR"}, {"measurement": "GR value", "setting": "[2]; 0.001 µM", "result": 1, "unit": "GR"}, {"measurement": "GR value", "setting": "[2]; 0.003162 µM", "result": 0.997, "unit": "GR"}, {"measurement": "GR value", "setting": "[2]; 0.01 µM", "result": 0.865, "unit": "GR"}, {"measurement": "GR value", "setting": "[2]; 0.03162 µM", "result": -0.169, "unit": "GR"}, {"measurement": "GR value", "setting": "[2]; 0.1 µM", "result": -0.503, "unit": "GR"}, {"measurement": "GR value", "setting": "[2]; 0.3162 µM", "result": -0.612, "unit": "GR"}, {"measurement": "GR value", "setting": "[2]; 1 µM", "result": -0.649, "unit": "GR"}, {"measurement": "GR value", "setting": "[3]; 0.001 µM", "result": 0.682, "unit": "GR"}, {"measurement": "GR value", "setting": "[3]; 0.003162 µM", "result": 0.508, "unit": "GR"}, {"measurement": "GR value", "setting": "[3]; 0.01 µM", "result": 0.42, "unit": "GR"}, {"measurement": "GR value", "setting": "[3]; 0.03162 µM", "result": 0.344, "unit": "GR"}, {"measurement": "GR value", "setting": "[3]; 0.1 µM", "result": 0.305, "unit": "GR"}, {"measurement": "GR value", "setting": "[3]; 0.3162 µM", "result": 0.272, "unit": "GR"}, {"measurement": "GR value", "setting": "[3]; 1 µM", "result": 0.262, "unit": "GR"}, {"measurement": "GR value", "setting": "[3]; 3.162 µM", "result": 0.241, "unit": "GR"}, {"measurement": "GR value", "setting": "[3]; 10 µM", "result": -0.088, "unit": "GR"}, {"measurement": "GR value", "setting": "YKL-5-124; 0.001 µM", "result": 0.472, "unit": "GR"}, {"measurement": "GR value", "setting": "YKL-5-124; 0.003162 µM", "result": 0.473, "unit": "GR"}, {"measurement": "GR value", "setting": "YKL-5-124; 0.01 µM", "result": 0.363, "unit": "GR"}, {"measurement": "GR value", "setting": "YKL-5-124; 0.03162 µM", "result": 0.342, "unit": "GR"}, {"measurement": "GR value", "setting": "YKL-5-124; 0.1 µM", "result": 0.215, "unit": "GR"}, {"measurement": "GR value", "setting": "YKL-5-124; 0.3162 µM", "result": 0.246, "unit": "GR"}, {"measurement": "GR value", "setting": "YKL-5-124; 1 µM", "result": 0.219, "unit": "GR"}, {"measurement": "GR value", "setting": "YKL-5-124; 3.162 µM", "result": 0.119, "unit": "GR"}, {"measurement": "GR value", "setting": "YKL-5-124; 10 µM", "result": -0.629, "unit": "GR"}, {"measurement": "GR value", "setting": "LEE011/Ribociclib; 0.001 µM", "result": 0.564, "unit": "GR"}, {"measurement": "GR value", "setting": "LEE011/Ribociclib; 0.003162 µM", "result": 0.501, "unit": "GR"}, {"measurement": "GR value", "setting": "LEE011/Ribociclib; 0.01 µM", "result": 0.497, "unit": "GR"}, {"measurement": "GR value", "setting": "LEE011/Ribociclib; 0.03162 µM", "result": 0.461, "unit": "GR"}, {"measurement": "GR value", "setting": "LEE011/Ribociclib; 0.1 µM", "result": 0.494, "unit": "GR"}, {"measurement": "GR value", "setting": "LEE011/Ribociclib; 0.3162 µM", "result": 0.422, "unit": "GR"}, {"measurement": "GR value", "setting": "LEE011/Ribociclib; 1 µM", "result": 0.473, "unit": "GR"}, {"measurement": "GR value", "setting": "LEE011/Ribociclib; 3.162 µM", "result": 0.48, "unit": "GR"}, {"measurement": "GR value", "setting": "LEE011/Ribociclib; 10 µM", "result": 0.484, "unit": "GR"}, {"measurement": "GR value", "setting": "[4]; 0.0003162 µM", "result": 0.92, "unit": "GR"}, {"measurement": "GR value", "setting": "[4]; 0.001 µM", "result": 0.914, "unit": "GR"}, {"measurement": "GR value", "setting": "[4]; 0.003162 µM", "result": 0.79, "unit": "GR"}, {"measurement": "GR value", "setting": "[4]; 0.01 µM", "result": 0.671, "unit": "GR"}, {"measurement": "GR value", "setting": "[4]; 0.03162 µM", "result": 0.422, "unit": "GR"}, {"measurement": "GR value", "setting": "[4]; 0.1 µM", "result": 0.406, "unit": "GR"}, {"measurement": "GR value", "setting": "[4]; 0.3162 µM", "result": 0.366, "unit": "GR"}, {"measurement": "GR value", "setting": "[4]; 1 µM", "result": 0.358, "unit": "GR"}, {"measurement": "GR value", "setting": "[4]; 3.162 µM", "result": 0.355, "unit": "GR"}, {"measurement": "GR value", "setting": "THZ1; 0.0001 µM", "result": 0.991, "unit": "GR"}, {"measurement": "GR value", "setting": "THZ1; 0.0003162 µM", "result": 1.12, "unit": "GR"}, {"measurement": "GR value", "setting": "THZ1; 0.001 µM", "result": 1.07, "unit": "GR"}, {"measurement": "GR value", "setting": "THZ1; 0.003162 µM", "result": 0.882, "unit": "GR"}, {"measurement": "GR value", "setting": "THZ1; 0.01 µM", "result": 0.669, "unit": "GR"}, {"measurement": "GR value", "setting": "THZ1; 0.03162 µM", "result": 0.149, "unit": "GR"}, {"measurement": "GR value", "setting": "THZ1; 0.1 µM", "result": -0.241, "unit": "GR"}, {"measurement": "GR value", "setting": "THZ1; 0.3162 µM", "result": -0.397, "unit": "GR"}, {"measurement": "GR value", "setting": "THZ1; 1 µM", "result": -0.517, "unit": "GR"}, {"measurement": "GR value", "setting": "THZ531 [5]; 0.0001 µM", "result": 1.05, "unit": "GR"}, {"measurement": "GR value", "setting": "THZ531 [5]; 0.0003162 µM", "result": 1.05, "unit": "GR"}, {"measurement": "GR value", "setting": "THZ531 [5]; 0.001 µM", "result": 0.907, "unit": "GR"}, {"measurement": "GR value", "setting": "THZ531 [5]; 0.003162 µM", "result": 1.06, "unit": "GR"}, {"measurement": "GR value", "setting": "THZ531 [5]; 0.01 µM", "result": 1.08, "unit": "GR"}, {"measurement": "GR value", "setting": "THZ531 [5]; 0.03162 µM", "result": 0.743, "unit": "GR"}, {"measurement": "GR value", "setting": "THZ531 [5]; 0.1 µM", "result": -0.298, "unit": "GR"}, {"measurement": "GR value", "setting": "THZ531 [5]; 0.3162 µM", "result": -0.396, "unit": "GR"}, {"measurement": "GR value", "setting": "THZ531 [5]; 1 µM", "result": -0.421, "unit": "GR"}]}
